{"source": "patent US20120178763A1", "about": "“Method of Treating Anxious Major Depressive Disorder” (priority 2008, published 2012)", "key": {"[1]": {"assay": "Efficacious mean plasma exposure in rodent tests of anxiolysis and antidepressant activity", "format": "in vivo", "conditions": "rodents; separate tests of anxiolysis and antidepressant activity"}, "Male Sprague Dawley rats": {"system": "Male Sprague Dawley rats", "assay": "Learned helplessness procedure", "format": "in vivo, rat", "conditions": "for Mean Center Crossings ± SEM: gauge of motor activity; for Mean Escape Failures ± (SEM): of 50 trials", "protocol": "Male Sprague Dawley rats were exposed to inescapable electrical stimulation for 2 successive, daily 1 hour periods (conditioning), and then subsequently trained to avoid or escape the electrical stimulation by running to the opposite side of the test cage. […] In the training phase, when the electrical stimulation was escapable, the number of escape failures was recorded. Standard shuttle cages (20 L×16 W×21 centimeters H) fitted with a grid floor were used. The chambers could be partitioned with a closed partition or with an archway that allowed the animals to pass between the 2 sides of the cage. A computer controlled and monitored all events in the chamber.\nThe procedure utilized involved an induction phase and an avoidance training phase. In the induction phase, rats were enclosed in one side of the shuttle cage and electrical stimulation (2 mA, […]) was delivered to the floor of the cage every 2, 5 or 10 seconds (randomly selected for each trial) until 90 electrical stimulations were delivered. Subjects had no opportunity to escape or to avoid the electrical stimulation. Induction was conducted for 2 consecutive days. In the avoidance training phase, a partition with an arch through which the rats could pass was inserted into the center of the shuttle cages. The method employed a standard shuttle avoidance in which a compound, conditioned stimulus (a 5 second presentation of a tone and turning on of a lamp on the side of the rat containing cage) served to indicate impending presentation of electrical stimulation to the floor of the cage. The electrical stimulation was presented for a 5 second period 5 seconds after initiation of the conditioned stimulus. […] A 30 second inter-trial interval was employed. 40 minute avoidance training sessions, consisting of 50 trials were conducted on 2 consecutive days, beginning 48 hours after the final induction session.\nDosages of all compounds are reported as the free base. […] Drug was administered immediately following conditioning and training sessions and approximately 7-8 hrs after the first injection, as well as on the day in the middle of the study when no conditioning or training was conducted. In study 2, imipramine was administered 30 minutes prior to avoidance training whereas in all other circumstances, drug was administered following training.\nThe primary dependent variable was escape failures during avoidance training. […] T-Tests were used to compare the performance of the vehicle-administered group to drug treated groups. The no-induction group was used to gauge whether learned helplessness was established, by comparison to the vehicle treated group."}, "rats": {"system": "rats", "assay": "Punished responding procedure (modified Geller-Seifter conflict test)", "conditions": "for Rate of responding, Punished responding / Rate of responding, Unpunished responding: 60 minute pretreatment", "source_text": "In the conflict test, hungry animals were trained to lever-press for food delivery in a standard operant chamber under 2 conditions. In the first condition, referred to as the unsuppressed component, food was delivered on average after 17 lever-presses were made (also called a VR17 schedule of reinforcement). In the second condition, referred to as the suppressed component and signaled by flashing lights inside the operant chamber, food was also delivered following an average of 17 lever-presses, but electric shock was additionally delivered to the floor of the cage under a separate VR17 schedule. Daily sessions consisted of 5 alternating presentations of each component type: suppressed (3 minutes in duration) and unsuppressed (2 minutes in duration).\nCompound A was dissolved in distilled deionized water/lactic acid and was administered by mouth in a volume of 1 mL/kg body weight. […] Compound A was administered on Tuesday and Friday and vehicle on Thursday. Monday and Wednesday were washout/baseline days.\nStandard 2-lever operant chambers were used (Med Associates). The chambers were fitted with 2 retractable response levers and a stimulus lamp over each of the 2 levers. A pellet dispenser delivered 45 mg food pellets, (Bio Serv) to a cup located inside of the chamber below and between the 2 response levers. A lamp at the top and back of the chamber served as houselights. The grid floors of the operant chambers were interfaced to shock generators and scramblers (Med Associates). All events in the chambers were controlled and monitored by a microprocessor.\nThere were 2 components in the procedure: 1) an unsuppressed responding component (unpunished) with 2 minutes in duration; and 2) a suppressed responding component (punished) with 3 minutes in duration.\nIn the unpunished component, the houselights and both stimulus lamps over the response levers were turned on, the lever on the left-hand side of the chamber extended, and a food pellet was delivered following an average of 17 responses on the lever in the chamber (range 3 to 40 responses)—a variable-ratio 17 schedule (VR17).\nIn the punished component (which followed the unpunished component), the right-hand lever was extended into the chamber; the stimulus lamps and houselights were turned on and off at 1 second intervals, in succession, which served as a cue for this component; and food was available under a VR17 schedule, but was accompanied by an electrical current (0.5 second duration) that was delivered to the grid floor of the chamber under an independent VR17 schedule. The level of the current was adjusted for each individual subject until responding was reduced in the punished component to a level that was about 5% to 10% that of the unpunished component, and ranged from 0.2 mA to 0.75 mA. Unpunished and punished components were separated by 10 second time-out periods in which both response levers were retracted and all stimulus lamps turned off 2 minute unpunished and 3 minute punished components alternated until 5 of each were completed. Daily sessions always began with the unpunished responding component. […] Several doses were tested on a given test day in different subjects. Each dose, then, was tested in different sub-set of rats.\nThe dependent variables recorded were the rate of responding in unpunished and punished components (total responses/total time under the component) and the number of shocks delivered."}}, "note": "“Also recorded” adds a separate entry of the source."}
{"smiles": "CCN(CC)C(=O)c1ccc([C@H](c2cccc(N)c2)N2CCN(Cc3ccc(F)cc3)CC2)cc1.CCN(CC)C(=O)c1ccc([C@H](c2cccc(N)c2)N2CCN(Cc3ccc(F)cc3)CC2)cc1.O=C(O)/C=C/C(=O)O.O=C(O)/C=C/C(=O)O.O=C(O)/C=C/C(=O)O", "note": "[Example 3, 4-{(R)-(3-aminophenyl)[4-(4-fluorobenzyl)piperazin-1-yl]methyl}-N,N-diethylbenzamide sesquifumarate]", "values": [{"measurement": "mean plasma exposures shown to be efficacious", "setting": "[1]", "value": "≥ 2", "unit": "ng/mL"}]}
{"smiles": "CCN(CC)C(=O)c1ccc([C@H](c2cccc(N)c2)N2CCN(Cc3ccc(F)cc3)CC2)cc1", "note": "[Example 2, 4-{(R)-(3-aminophenyl)[4-(4-fluorobenzyl)piperazin-1-yl]methyl}-N,N-diethylbenzamide]", "values": [{"measurement": "Mean Center Crossings ± SEM", "setting": "Male Sprague Dawley rats; 0.1 mg/kg by mouth twice a day", "value": "26.6 (0.85)"}, {"measurement": "Mean Escape Failures ± (SEM)", "setting": "Male Sprague Dawley rats; 0.1 mg/kg by mouth twice a day", "value": "6.1 (3.4)"}, {"measurement": "Mean Center Crossings ± SEM", "setting": "Male Sprague Dawley rats; 1 mg/kg by mouth twice a day", "value": "30.9 (2.9)"}, {"measurement": "Mean Escape Failures ± (SEM)", "setting": "Male Sprague Dawley rats; 1 mg/kg by mouth twice a day", "value": "3.1 (1.7)"}, {"measurement": "Mean Center Crossings ± SEM", "setting": "Male Sprague Dawley rats; 10 mg/kg by mouth twice a day", "value": "26.9 (0.7)"}, {"measurement": "Mean Escape Failures ± (SEM)", "setting": "Male Sprague Dawley rats; 10 mg/kg by mouth twice a day", "value": "4.9 (2)"}, {"measurement": "effect on escape failures", "setting": "Male Sprague Dawley rats; 0.1, 1 and 10 mg/kg by mouth twice a day, only the 2 higher doses significant, listed as Compound A", "value": "tended to decrease escape failures; also recorded: produced a decrease in escape failures"}, {"measurement": "Percent of control, Punished responding", "setting": "rats; 0.21 μmol/kg by mouth", "value": "107 ± 19.3% of control"}, {"measurement": "Percent of control, Unpunished responding", "setting": "rats; 0.21 μmol/kg by mouth", "value": "103 ± 1.63% of control"}, {"measurement": "effect on punished responding", "setting": "rats; 0.21 μmol/kg by mouth", "value": "not effective"}, {"measurement": "Rate of responding, Punished responding", "setting": "rats; 0.21 μmol/kg by mouth", "value": "0.11 ± 0.02"}, {"measurement": "Rate of responding, Unpunished responding", "setting": "rats; 0.21 μmol/kg by mouth", "value": "2.06 ± 0.11"}, {"measurement": "Percent of control, Punished responding", "setting": "rats; 0.63 μmol/kg by mouth", "value": "273 ± 39.2% of control"}, {"measurement": "Percent of control, Unpunished responding", "setting": "rats; 0.63 μmol/kg by mouth", "value": "92.1 ± 5.12% of control"}, {"measurement": "Rate of responding, Punished responding", "setting": "rats; 0.63 μmol/kg by mouth", "value": "0.24 ± 0.03"}, {"measurement": "Rate of responding, Unpunished responding", "setting": "rats; 0.63 μmol/kg by mouth", "value": "2.02 ± 0.14"}, {"measurement": "Percent of control, Punished responding", "setting": "rats; 2.1 μmol/kg by mouth", "value": "298 ± 132% of control"}, {"measurement": "Percent of control, Unpunished responding", "setting": "rats; 2.1 μmol/kg by mouth", "value": "106 ± 5.60% of control"}, {"measurement": "Rate of responding, Punished responding", "setting": "rats; 2.1 μmol/kg by mouth", "value": "0.18 ± 0.04"}, {"measurement": "Rate of responding, Unpunished responding", "setting": "rats; 2.1 μmol/kg by mouth", "value": "1.95 ± 0.15"}, {"measurement": "increase in punished responding (maximal efficacy)", "setting": "rats; 2.11 μmol/kg by mouth", "value": "about 300%"}, {"measurement": "Percent of control, Punished responding", "setting": "rats; 6.3 μmol/kg by mouth", "value": "207 ± 67.2% of control"}, {"measurement": "Percent of control, Unpunished responding", "setting": "rats; 6.3 μmol/kg by mouth", "value": "106 ± 2.94% of control"}, {"measurement": "Rate of responding, Punished responding", "setting": "rats; 6.3 μmol/kg by mouth", "value": "0.17 ± 0.03"}, {"measurement": "Rate of responding, Unpunished responding", "setting": "rats; 6.3 μmol/kg by mouth", "value": "1.92 ± 0.13"}, {"measurement": "Percent of control, Punished responding", "setting": "rats; 21.1 μmol/kg by mouth", "value": "272 ± 100% of control"}, {"measurement": "Percent of control, Unpunished responding", "setting": "rats; 21.1 μmol/kg by mouth", "value": "95.5 ± 4.08% of control"}, {"measurement": "Rate of responding, Punished responding", "setting": "rats; 21.1 μmol/kg by mouth", "value": "0.20 ± 0.04"}, {"measurement": "Rate of responding, Unpunished responding", "setting": "rats; 21.1 μmol/kg by mouth", "value": "1.69 ± 0.12"}, {"measurement": "effect on rate of punished responding", "setting": "rats; 0.63, 2.11, 6.3, and 21.1 μmol/kg compared to vehicle controls", "value": "increased the rate of punished responding"}, {"measurement": "effect on unpunished responding", "setting": "rats; at the doses tested (0.21 to 21 μmol/kg)", "value": "did not significantly decrease unpunished responding"}, {"measurement": "acute anxiolytic activity", "setting": "rats; modified Geller-Seifter conflict model", "value": "has acute anxiolytic activity"}, {"measurement": "sedative/hyperactive properties", "setting": "rats; observations of test subjects in their home cage", "value": "does not possess sedative/hyperactive properties"}]}
{"smiles": "CN(C)CCCN1c2ccccc2CCc2ccccc21", "note": "[Imipramine, imipramine, reference compound]", "values": [{"measurement": "Mean Escape Failures ± (SEM)", "setting": "Male Sprague Dawley rats; 20 mg/kg by mouth twice a day", "value": "2.3 (1)"}]}
{"smiles": "CN1C(=O)CN=C(c2ccccc2)c2cc(Cl)ccc21", "note": "[diazepam, reference compound]", "values": [{"measurement": "level of efficacy in the conflict model (punished responding)", "setting": "rats; 3.5 μmol/kg by mouth, data not shown", "value": "~250", "unit": "%"}]}
